Paper PMC8264504, “Identification of Koumine as a Translocator Protein 18 kDa Positive Allosteric Modulator for the Treatment of Inflammatory and Neuropathic Pain” (Frontiers in Pharmacology, 2021)

Key:
rat model of CIA = experiment: Collagen-induced arthritis (CIA) model, MWT and hind paw volume; format: in vivo
Protocol: The induction of CIA in Lewis rats followed protocols and used reagents supplied by Chondrex. Bovine type II collagen (2 mg/ml in 0.05 M acetic acid) was emulsified with incomplete Freund’s adjuvant (IFA; Sigma-Aldrich) using an electric homogenizer equipped with a small blade. Equal volumes of collagen and IFA were mixed in an ice water bath, and collagen was added dropwise to the IFA at 1,000–3,000 rpm. […] Lewis rats were anesthetized and received 0.2 ml of collagen emulsion by subcutaneous injection at the base of the tail. Booster injections were given on day 7 of the study with 0.1 ml of emulsion. Immunized rats received Ro5-4864, koumine or vehicle for seven consecutive days beginning from day 29 after the first collagen injection. The mechanical withdrawal threshold (MWT) was determined on day 29 and day 35, the hind paw volume was determined on day 35, and was measured 60 min following the MWT measurement. Koumine or vehicle was injected s. c., and MWT values were determined 60 min after koumine injection. Ro5-4864 or vehicle was injected i. p., and MWT was determined 50 min after Ro5-4864 injection. To determine whether koumine potentiated the effects of Ro5-4864, koumine (1.0 mg/kg, s. c.) or vehicle was injected 10 min before Ro5-4864 (0.0625–1.0 mg/kg, i. p.) injection, and the MWT was determined 50 min after the last injection. Animals were randomized for treatment and behavioral test were performed in a blinded manner. Mechanical allodynia and edema measurement were measured using the procedures described below. Only rats with mechanical withdrawal threshold scores (calculated by mechanical withdrawal threshold of immunized rats/mechanical withdrawal threshold of normal rats) on day 28 after the first collagen injection >0.75 were used in the study.
Mechanical allodynia was measured using a commercially available electronic von Frey apparatus (Model 2,390; IITC Life Science Inc., Woodland Hills, CA) as described by Mitrirattanakul ([Mitrirattanakul et al., 2006]) with minor modifications. Rats were placed in a Plexiglas box on a steel mesh floor, and analyses were performed using an electronic von Frey apparatus. Stimulation was applied to the center of the hind paw in an upward motion of the von Frey filament until foot withdrawal occurred, and the withdrawal threshold was automatically recorded. The maximum strength of the filament used for von Frey testing was 55 g. The procedure was repeated three times at approximately 5 min intervals for each hind paw, and the MWT was calculated as the mean of the three latencies.
Arthritic edema was assessed by measuring the hind paw volume with a plethysmometer (Yi Yan Technology Development Co., Ltd.) according to the manufacturer’s recommendations.

TSPO = biological target: TSPO; design: method as in Awad and Gavish, 1987; Verma et al., 1987; conditions: radioligand binding experiment results from literatures, ref Awad and Gavish, 1987, Verma et al.; cited from earlier work
[1] = biological target: T1, TSPO from rat cerebral cortex (Rattus norvegicus, UniProt P16257); experiment: 3H-PK11195 equilibrium binding in presence of koumine
T1 construct: from tissue; host or cells: rat (SD) cerebral cortex, crude mitochondrial/membrane pellet
Protocol: (§1) Briefly, male SD rats (240 ± 10 g) were killed by decapitation, and the cerebral cortices were dissected. The tissues were homogenized in 10 volumes (ml/g) of 50 mM Tris HCl buffer containing 0.32 M sucrose (pH 7.4). The homogenates were centrifuged at 1,000 g for 10 min at 4°C. The resulting pellets were discarded, and the supernatants were centrifuged at 9,000 g for 15 min. The pellets were resuspended in 10 volumes of Tris HCl buffer containing 0.32 M sucrose (pH 7.4) and centrifuged at 13,000 g for 30 min, then resuspended in 10 volumes of Tris HCl buffer and centrifuged again at 13,000 g for 30 min. The final pellets were suspended in Tris HCl buffer and used in the binding assays. Protein concentrations were measured using the BCA Protein Assay Kit (ThermoFisher Scientific) according to the manufacturer’s instructions.
After incubation at 4°C for 2 h, the reaction was terminated by the addition of ice-cold 50 mM Tris HCl buffer (pH 7.4) followed by vacuum filtration through Filtermat A glass microfiber filters (pretreated with 0.2% polyethylenimine) using a Brandel cell harvester. The filters were washed rapidly, and radioactivity was determined by liquid scintillation spectrometry.

[2] = system: TSPO from the rat cerebral cortex; design: method as in Jin, 2014; conditions: previous competitive binding assay; ref Jin, 2014; cited from earlier work
[3] = biological target: T1, TSPO from rat cerebral cortex; experiment: 3H-PK11195 dissociation kinetics; format: binding
Protocol: as §1
Then, samples were filtered through Filtermat A glass microfiber filters (pretreated with 0.2% polyethylenimine) using a Brandel cell harvester, and the radioactivities were measured at the indicated time points.

[4] = acute administration alone on day 29
[5] = given alone daily day 29 to day 35, MWT on day 35

T1 sequence (P16257 whole entry): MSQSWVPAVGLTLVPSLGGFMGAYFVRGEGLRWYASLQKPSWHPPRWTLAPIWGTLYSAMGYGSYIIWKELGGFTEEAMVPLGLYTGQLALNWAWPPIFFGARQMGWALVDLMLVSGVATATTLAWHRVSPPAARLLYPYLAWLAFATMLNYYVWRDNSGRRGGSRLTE

| SMILES | paw edema (hind paw volume) (rat model of CIA; Ro5-4864 alone at the highest dose tested, daily day 29 to day 35 i.p., day 35) | mechanical allodynia (MWT) (rat model of CIA; [4]) | mechanical allodynia (MWT) (rat model of CIA; [5]) | Kd (TSPO) [nM] | modulation of Ro5-4864 antinociceptive effect (MWT) (rat model of CIA; acute coadministration of 1.0 mg/kg koumine s.c. and Ro5-4864 i.p., day 29) | modulation of Ro5-4864-mediated anti-edematogenic effect (hind paw volume) (rat model of CIA; koumine 1.0 mg/kg s.c. coadministered with Ro5-4864 0.25 mg/kg i.p., successive administration, day 35) | modulation of Ro5-4864-mediated analgesic effect (MWT) (rat model of CIA; koumine 1.0 mg/kg s.c. coadministered with Ro5-4864 0.125–1.0 mg/kg i.p., successive administration, day 35) | paw edema (hind paw volume) (rat model of CIA; koumine alone daily day 29 to day 35 s.c., day 35) | effect on binding of 0.1 nM 3H-PK11195 ([1]; 10^−10 M and 10^−6 M koumine only) | effect on binding of 0.1 nM 3H-PK11195 ([1]; all concentrations of koumine, 10^−12–10^−3 M, not dose dependent) | effect on binding of 3H-PK11195 with TSPO [2] | dissociation rate of 3H-PK11195 relative to vehicle group ([3]; in presence of 10^−6 M koumine) [%] | dissociation rate of 3H-PK11195 relative to vehicle group ([3]; in presence of 10^−10 M koumine) [%] |
| --- | --- | --- | --- | --- | --- | --- | --- | --- | --- | --- | --- | --- | --- |
| CN1C(=O)CN=C(c2ccc(Cl)cc2)c2cc(Cl)ccc21 [Ro5-4864, reference compound] | significantly inhibited paw edema | reduced mechanical allodynia | clearly reduced mechanical allodynia | 7.3 ± 0.8 | – | – | – | – | – | – | – | – | – |
| C=C[C@@]12CN(C)[C@H]3C[C@]14C(=Nc1ccccc14)[C@H]1C[C@@H]2[C@@H]3CO1 [koumine] | – | dose-dependent inhibition effect | clearly reduced mechanical allodynia | – | clearly augmented the antinociceptive effect | notably increased | notably increased | did not produce an anti-edematogenic effect | significantly increased the binding | tended to increase the binding | significantly increased the binding | 72 | 81 |
